Columns and labels:
[1] = molecular target: T1, CFTR-mediated short-circuit current in F508del/MF-HBE cells (Homo sapiens, UniProt P13569, DEL508-508); test: HBE assay: Ussing chamber assay of CFTR-mediated short-circuit currents; assay type: cell-based; conditions: for EC50 / HBE Max activity (%): F508del/MF-HBE cells, 18-24 hours incubation
T1 construct: human bronchial epithelial (HBE) cells derived from CF subjects; endogenous in cells; host or cells: primary human bronchial epithelial cells from CF subjects (F508del/MF-HBE)
Method: (§1) 1. Ussing Chamber Assay of CFTR-Mediated Short-Circuit Currents
(§2) Ussing chamber experiments were performed using human bronchial epithelial (HBE) cells derived from CF subjects heterozygous for F508del and a minimal function CFTR mutation (F508del/MF-HBE) and cultured as previously described (Neuberger T, Burton B, Clark H, Van Goor F Methods Mol Biol 2011:741:39-54). After four days the apical media was removed, and the cells were grown at an air liquid interface for >14 days prior to use.
(§3) To isolate the CFTR-mediated short-circuit (ISC) current, F508del/MF-HBE grown on Costar® Snapwell™ cell culture inserts were mounted in an Ussing chamber and the transepithelial ISC was measured under voltage-clamp recording conditions (Vhold=0 mV) at 37° C. The basolateral solution contained (in mM) 145 NaCl, 0.83 K2HPO4, 3.3 KH2PO4, 1.2 MgCl2, 1.2 CaCl2), 10 Glucose, 10 HEPES (pH adjusted to 7.4 with NaOH) and the apical solution contained (in mM) 145 NaGluconate, 1.2 MgCl2, 1.2 CaCl2, 10 glucose, 10 HEPES (pH adjusted to 7.4 with NaOH) and 30 μM amiloride to block the epithelial sodium channel. Forskolin (20 μM) was added to the apical surface to activate CFTR, followed by apical addition of a CFTR inhibitor cocktail consisting of BPO, GlyH-101, and CFTR inhibitor 172 (each at 20 μM final assay concentration) to specifically isolate CFTR currents. The CFTR-mediated ISC (μA/cm^2) for each condition was determined from the peak forskolin response to the steady-state current following inhibition.
(§4) 2. Identification of Corrector Compounds
(§5) The activity of the CFTR corrector compounds on the CFTR-mediated ISC was determined in Ussing chamber studies as described above. The F508del/MF-HBE cell cultures were either incubated with the corrector compounds at a range of concentrations in combination with 1 μM Ivacaftor or were incubated with the corrector compounds at a single fixed concentration of 10 μM in combination with 1 μM Ivacaftor for 18-24 hours at 37° C. and in the presence of 20% human serum. The concentration of corrector compounds with 1 μM Ivacaftor during the 18-24 hours incubations was kept constant throughout the Ussing chamber measurement of the CFTR-mediated ISC to ensure compounds were present throughout the entire experiment.
as §3, with “CaCl2,” for “CaCl2),”

[2] = molecular target: T1, CFTR-mediated short-circuit current in F508del/MF-HBE cells; test: HBE2 assay: Ussing chamber assay of CFTR-mediated short-circuit currents; assay type: cell-based
Method: as §1, §2
as §3, with “CaCl2,” for “CaCl2),”
as §4
as §5, with “44 nM (6R,12R)-17-amino-12-methyl-6,15-bis(trifluoromethyl)-13,19-dioxa-3,4,18-triazatricyclo[12.3.1.12,5]nonadeca-1(18),2,4,14,16-pentaen-6-ol” for “1 μM Ivacaftor”, “1 and 3” for “10”, “[…]” for “20%”

T1 sequence (P13569 with tags, fused parts or gaps DEL508-508): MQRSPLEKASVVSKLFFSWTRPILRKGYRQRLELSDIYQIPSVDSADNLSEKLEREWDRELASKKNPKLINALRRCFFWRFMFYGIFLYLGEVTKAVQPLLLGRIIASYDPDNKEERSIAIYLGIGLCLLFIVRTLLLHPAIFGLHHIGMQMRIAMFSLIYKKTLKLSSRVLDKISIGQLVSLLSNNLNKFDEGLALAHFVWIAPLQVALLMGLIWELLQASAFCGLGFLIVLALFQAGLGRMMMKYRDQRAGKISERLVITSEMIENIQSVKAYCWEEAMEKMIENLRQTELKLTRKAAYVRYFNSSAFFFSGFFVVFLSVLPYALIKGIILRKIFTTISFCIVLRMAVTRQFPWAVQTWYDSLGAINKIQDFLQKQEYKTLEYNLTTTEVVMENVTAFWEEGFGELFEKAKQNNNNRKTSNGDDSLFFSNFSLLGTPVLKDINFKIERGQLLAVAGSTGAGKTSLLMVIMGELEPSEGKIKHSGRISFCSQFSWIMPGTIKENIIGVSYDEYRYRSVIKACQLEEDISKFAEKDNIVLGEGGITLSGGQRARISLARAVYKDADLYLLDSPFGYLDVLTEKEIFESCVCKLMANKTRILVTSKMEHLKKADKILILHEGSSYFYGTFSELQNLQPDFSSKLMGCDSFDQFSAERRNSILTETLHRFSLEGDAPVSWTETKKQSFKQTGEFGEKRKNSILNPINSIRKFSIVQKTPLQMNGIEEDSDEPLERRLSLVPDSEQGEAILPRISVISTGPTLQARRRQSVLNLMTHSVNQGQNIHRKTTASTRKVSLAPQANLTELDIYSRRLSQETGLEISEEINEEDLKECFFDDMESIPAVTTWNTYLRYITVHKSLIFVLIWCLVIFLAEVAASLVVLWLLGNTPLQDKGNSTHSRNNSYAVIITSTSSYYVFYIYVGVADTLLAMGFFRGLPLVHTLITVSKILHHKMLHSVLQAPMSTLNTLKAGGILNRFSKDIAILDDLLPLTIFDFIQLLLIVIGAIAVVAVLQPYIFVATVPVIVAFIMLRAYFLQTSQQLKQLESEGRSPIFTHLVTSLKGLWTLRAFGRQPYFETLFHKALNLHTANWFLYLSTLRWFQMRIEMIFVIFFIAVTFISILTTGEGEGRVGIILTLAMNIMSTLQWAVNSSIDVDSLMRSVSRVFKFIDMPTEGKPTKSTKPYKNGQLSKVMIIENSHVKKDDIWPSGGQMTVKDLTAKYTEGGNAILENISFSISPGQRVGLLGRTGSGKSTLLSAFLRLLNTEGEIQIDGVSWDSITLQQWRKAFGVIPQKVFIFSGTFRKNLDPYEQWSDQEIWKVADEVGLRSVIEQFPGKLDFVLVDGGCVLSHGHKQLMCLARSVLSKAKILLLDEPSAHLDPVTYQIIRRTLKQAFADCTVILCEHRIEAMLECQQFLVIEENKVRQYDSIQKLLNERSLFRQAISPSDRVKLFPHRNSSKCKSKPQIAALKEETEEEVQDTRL

SMILES | HBE2 Activity at 3 μM (%) [2] | activation at 3 µM [2] | further results
Cc1cccc(C)c1-c1cc2nc(n1)NS(=O)(=O)c1cccc(c1)C(=O)N1[C@@H](c3ncc(OC(C)C)cn3)CC[C@@H](C(C)C)[C@H]1CO2 (single isomer, unassigned) [Compound 388, 13-(2,6-Dimethylphenyl)-4-(5-isopropoxypyrimidin-2-yl)-7-isopropyl-17,17-dioxo-10-oxa-17λ^6-thia-3,14,16,23-tetrazatetracyclo[16.3.1.111,15.03,8]tricosa-1(21),11,13,15(23),18(22),19-hexaen-2-one] | – | – | EC50 [1]: < 1000 nM; HBE Max activity (%) [1]: +++ (+++ is >60%)
Cc1cccc(C)c1-c1cc2nc(n1)NS(=O)(=O)c1cccc(c1)C(=O)N1[C@@H](c3ncc(OC(C)C)cn3)CC[C@@H](C(C)C)[C@H]1CO2 (single isomer, unassigned) [Compound 389, 13-(2,6-dimethylphenyl)-4-(5-isopropoxypyrimidin-2-yl)-7-isopropyl-17,17-dioxo-10-oxa-17λ^6-thia-3,14,16,23-tetrazatetracyclo[16.3.1.111,15.03,8]tricosa-1(21),11,13,15(23),18(22),19-hexaen-2-one] | – | – | EC50 [1]: 1000 to 3000 nM; HBE Max activity (%) [1]: + (+ is <30+)
Cc1cccc(C)c1-c1cc2nc(n1)NS(=O)(=O)c1cccc(c1)C(=O)N1[C@@H](c3cccc(N(C)C4CC5(CC5)C4)n3)CC[C@@H](C(C)C)[C@H]1CO2 (single isomer, unassigned) [Compound 390, 13-(2,6-dimethylphenyl)-7-isopropyl-4-[6-[methyl(spiro[2.3]hexan-5-yl)amino]-2-pyridyl]-17,17-dioxo-10-oxa-17λ^6-thia-3,14,16,23-tetrazatetracyclo[16.3.1.111,15.03,8]tricosa-1(21),11,13,15(23),18(22),19-hexaen-2-one] | – | – | HBE Activity at 10 μM (%) ([1]; at 10 μM): +++ (+++ is >60%)
Cc1cccc(C)c1-c1cc2nc(n1)NS(=O)(=O)c1cccc(c1)C(=O)N1[C@@H](c3ncc(OC(C)C)cn3)CCC[C@@H](O2)[C@H]1CC(C)C (single isomer, unassigned) [Compound 407, 12-(2,6-dimethylphenyl)-21-isobutyl-20-(5-isopropoxypyrimidin-2-yl)-8,8-dioxo-15-oxa-8λ^6-thia-1,9,11,22-tetrazatetracyclo[14.4.1.13,7.110,14]tricosa-3,5,7(23),10(22),11,13-hexaen-2-one] | + (+ is <30+) | – | –
Cc1cccc(C)c1-c1cc2nc(n1)NS(=O)(=O)c1cccc(c1)C(=O)N1[C@@H](c3ncc(OC(C)C)cn3)CCC[C@@H](O2)[C@H]1CC(C)C (single isomer, unassigned) [Compound 408, 12-(2,6-Dimethylphenyl)-21-isobutyl-20-(5-isopropoxypyrimidin-2-yl)-8,8-dioxo-15-oxa-8λ^6-thia-1,9,11,22-tetrazatetracyclo[14.4.1.13,7.110,14]tricosa-3,5,7(23),10(22),11,13-hexaen-2-one] | +++ (+++ is >60%) | – | –
Cc1cccc(C)c1-c1cc2nc(n1)NS(=O)(=O)c1cccc(c1)C(=O)N1[C@@H](c3ncc(OC(C)C)cn3)CCC[C@@H](O2)[C@H]1CC(C)C (single isomer, unassigned) [Compound 409, 12-(2,6-dimethylphenyl)-21-isobutyl-20-(5-isopropoxypyrimidin-2-yl)-8,8-dioxo-15-oxa-8λ^6-thia-1,9,11,22-tetrazatetracyclo[14.4.1.13,7.110,14]tricosa-3,5,7(23),10(22),11,13-hexaen-2-one] | + (+ is <30+) | – | –
Cc1cccc(C)c1-c1cc2nc(n1)NS(=O)(=O)c1cccc(c1)C(=O)N1[C@@H](c3cncc(N(C)C4CCC4)n3)CCC(O2)[C@H]1CC(C)C (single isomer, unassigned) [Compound 410] | – | > 60% | –
Cc1cccc(C)c1-c1cc2nc(n1)NS(=O)(=O)c1cccc(c1)C(=O)N1[C@@H](c3cncc(N(C)C4CCC4)n3)CC[C@H](O2)[C@H]1CC(C)C (single isomer, unassigned) [Compound 411] | – | 30 to 60% | –
Cc1cccc(C)c1-c1cc2nc(n1)NS(=O)(=O)c1cccc(c1)C(=O)N1[C@H](CCC[C@@H]1C(=O)NCc1ccccc1)CO2 [Compound 415] | – | 30 to 60% | –
Cc1cccc(C)c1-c1cc2nc(n1)NS(=O)(=O)c1cccc(c1)C(=O)N1C[C@@H](CCCC[C@@H]1c1ncc(OCc3ccccc3)cn1)O2 [Compound 416] | – | 30 to 60% | –
Cc1cccc(C)c1-c1cc2nc(n1)NS(=O)(=O)c1cccc(c1)C(=O)N1C[C@@H](CCCC[C@@H]1c1ncc(OCc3ccccc3)cn1)O2 [Compound 417] | + (+ is <30+) | – | –
Cc1cccc(C)c1-c1cc2nc(n1)NS(=O)(=O)c1cccc(c1)C(=O)N1[C@@H](c3ncc(OC(C)C)cn3)CC[C@@H](O2)[C@H]1CC(C)C [Compound 418] | – | < 30% | –
Cc1cccc(C)c1-c1cc2nc(n1)NS(=O)(=O)c1cccc(c1)C(=O)N1[C@@H](CCCC[C@@H]1c1ncc(OCc3ccccc3)cn1)CO2 [Compound 419] | – | 30 to 60% | –
Cc1cccc(C)c1-c1cc2nc(n1)NS(=O)(=O)c1cccc(c1)C(=O)N1[C@@H](CCCC[C@@H]1c1ncc(OCc3ccccc3)cn1)CO2 [Compound 420] | + (+ is <30+) | – | –
Cc1cccc(C)c1-c1cc2nc(n1)NS(=O)(=O)c1cccc(c1)C(=O)N1[C@@H](c3ncc(OC(C)C)cn3)CCC[C@@H](O2)[C@H]1CC(C)C [Compound 421] | +++ (+++ is >60%) | – | –
Cc1cccc(C)c1-c1cc2nc(n1)NS(=O)(=O)c1cccc(c1)C(=O)N1[C@@H](c3ncc(OC(C)C)cn3)CCC[C@@H](O2)[C@H]1CC(C)C [Compound 422] | + (+ is <30+) | – | –
Cc1cccc(C)c1-c1cc2nc(n1)NS(=O)(=O)c1cccc(c1)C(=O)N1[C@@H](c3ncc(OC(C)C)cn3)CCC[C@H]1[C@H](CC(C)C)O2 [Compound 423] | – | 30 to 60% | –
Cc1cccc(C)c1-c1cc2nc(n1)NS(=O)(=O)c1cccc(c1)C(=O)N1[C@@H](c3ncc(OC(C)C)cn3)CCC[C@H]1[C@@H](CC(C)C)O2 [Compound 424] | – | 30 to 60% | –
Cc1cccc(C)c1-c1cc2nc(n1)NS(=O)(=O)c1cccc(c1)C(=O)N1[C@@H](c3cccc(N(C)C4CC5(CC5)C4)n3)CC[C@H]1[C@@H](CC(C)C)O2 [Compound 425] | – | 30 to 60% | –
Cc1cccc(C)c1-c1cc2nc(n1)NS(=O)(=O)c1cccc(c1)C(=O)N1[C@@H](c3ncc(OC(C)C)cn3)CC[C@H](O2)[C@H]1CC(C)C [Compound 426] | – | 30 to 60% | –
